# Experiments:
# [1] = Fluorescent hydrogel phase glucose responsive assay (10 mM PBS, pH 7.4, 310 K)
# [2] = Affinity electrochemistry - cyclic voltammetry glucose responsive assay (10 mM PBS, pH 7.4, 298 K); details: for Applied potential / Current response: FIM 0.5 mM, reduction process
# Method: Affinity electrochemistry measurements were made using a Metrohm Autolab PGSTAT101 potentiostat with a BIDSC-FET interface and screen-printed electrodes DRP-200BT. Data collection and analysis were performed using Nova software by Metrohm Autolab. Further analysis and processing were performed in Microsoft Excel. Measurements obtained at 298 K and at pH 7.4 unless otherwise stated.
# Separate samples containing a mixture of GBM, FIM and D-glucose at various concentrations in 10 mM PBS were prepared. 50 μL of each sample was pipetted onto the surface of the screen-printed electrode and the cyclic voltammogram acquired using the CV staircase protocol within the Nova software, using the following settings: Start potential at −0.4 V, upper vertex potential at 0.6 V, lower vertex potential at −0.4 V, stop potential at −0.39756 V, number of scans=3, scan rate at 0.1 V/s and Step at 0.00244 V. The data for each voltammogram was exported into Microsoft excel, processed and compared to give the glucose responsive electrochemical results.
# Changes in applied potential and current response were monitored using the reduction process observed during the cyclic voltammogram. Measurements obtained at 298 K and pH 7.4 in 10 mM PBS medium.
# [3] = Fluorescent solution phase glucose responsive assay (pH 7.4, 298 K)
# Method: Fluorescence spectroscopy was performed on either a HORIBA Duetta or BMG Labtech CLARIOstar plus plate reader. Emission spectra were obtained using the appropriate excitation wavelength and at a temperature of either 298 or 310 K and at pH 7.4 unless otherwise stated. Data collection and analysis were performed using EzSpec software by HORIBA or CLARIOstar MARS software by BMG Labtech. Further analysis and processing were performed in Microsoft Excel.
# A solution of GBM and FIM at the required concentrations were created in the appropriate media. The emission spectrum of the assay was then acquired by exciting at the designated excitation wavelength to obtain the baseline emission intensity for the assay. Aliquots of 2 M D-glucose (in the same media) were then added to give the required final glucose concentrations (e.g. 15 μL of 2 M D-glucose in 3 mL gives a final D-glucose concentration of 10 mM) and the assay allowed to reach equilibration. The emission spectra were collected after each addition of D-glucose and compared to the original baseline emission, monitoring at the typical emission maximum (Emmax), and the percentage increase or decrease recorded. Emission spectra acquired on either a Horiba Duetta fluorometer or Clariostar plus plate reader.
# The glucose responsive fluorescence emission for different combinations of glucose binding molecules (GBM) and fluorescent inhibitor molecules (FIM) at various concentrations and in various media was tested as described above. All results obtained at pH 7.4 and 298 K unless otherwise stated.
# All results obtained at pH 7.4 and 298 K unless otherwise stated.
# Table 4 provides the composition of the assay media used as the code assigned to each media as used in Tables 1 to 3.
# [4] = 20 mM D-glucose, GBM39 50 uM, FIM 2 uM, Ex 470/Emmax 530 nm, hydrogel D (azido PEG star polymer)
# [5] = 50 mM D-glucose, GBM39 50 uM, FIM 2 uM, Ex 470/Emmax 530 nm, hydrogel D (azido PEG star polymer)
# [6] = 60 mM D-glucose, GBM39 50 uM, FIM 2 uM, Ex 470/Emmax 530 nm, hydrogel D (azido PEG star polymer)
# [7] = 80 mM D-glucose, GBM39 50 uM, FIM 2 uM, Ex 470/Emmax 530 nm, hydrogel D (azido PEG star polymer)
# [8] = 100 mM D-glucose, GBM39 50 uM, FIM 2 uM, Ex 470/Emmax 530 nm, hydrogel D (azido PEG star polymer)
smiles,measurement,setting,value
C#CCCC(=O)N[C@@H](Cc1cn(CCOCCOCCOCCOc2ccc(CCO[C@@H]3O[C@H](CO)[C@@H](O)[C@H](O)[C@H]3O)cc2)nn1)C(=O)NCC(=O)Nc1ccc2c(c1)C(=O)OC21c2ccc(O)cc2Oc2cc(O)ccc21 [FIM1],Change in Emmax for FIM at a particular D-glucose concentration,"[1]; 20 mM D-glucose, GBM1 10 uM, FIM 1 uM, Ex 470/Emmax 530 nm, hydrogel D (azido PEG star polymer)",10%
same,Change in Emmax for FIM at a particular D-glucose concentration,"[1]; 50 mM D-glucose, GBM1 10 uM, FIM 1 uM, Ex 470/Emmax 530 nm, hydrogel D (azido PEG star polymer)",20%
same,Reversibility of emission on cycling (FIG. 5),"[1]; hydrogel D with GBM1 50 μM and FIM1 5 μM pre-incorporated, cycling 10 mM PBS / 20 mM D-glucose, 310 K, pH 7.4",shows reversibility of hydrogel
O=C(CNC(=O)[C@H](Cc1cn(CCOCCOCCOCCOc2ccc(CCO[C@@H]3O[C@H](CO)[C@@H](O)[C@H](O)[C@H]3O)cc2)nn1)NC(=O)OC[C@@H]1[C@@H]2CCC#CCC[C@@H]21)Nc1ccc2c(c1)C(=O)OC21c2ccc(O)cc2Oc2cc(O)ccc21 [FIM17],Change in Emmax for FIM at a particular D-glucose concentration,"[1]; 20 mM D-glucose, GBM30 100 uM, FIM 10 uM, Ex 480/Emmax 520 nm, hydrogel H (amino azide dextran/PEG)",120%
same,Change in Emmax for FIM at a particular D-glucose concentration,[1]; [4],70%
same,Change in Emmax for FIM at a particular D-glucose concentration,[1]; [5],175%
same,Change in Emmax for FIM at a particular D-glucose concentration,[1]; [6],215%
same,Change in Emmax for FIM at a particular D-glucose concentration,[1]; [7],295%
same,Change in Emmax for FIM at a particular D-glucose concentration,[1]; [8],380%
C#CCCC(=O)NCCCC[C@H](NC(=O)[c-]1cccc1)C(=O)NCCOCCOCCOCCn1cc(-c2ccc(CCO[C@@H]3O[C@H](CO)[C@@H](O)[C@H](O)[C@H]3O)cc2)nn1.[Fe+2].c1cc[cH-]c1 [FIM38],Applied potential,"[2]; 0 mM D-glucose, GBM 0 mM",0.327 V
same,Current response,"[2]; 0 mM D-glucose, GBM 0 mM",−4.25 ×10^−6 A
same,Applied potential,"[2]; 0 mM D-glucose, GBM15 1 mM",0.280 V
same,Current response,"[2]; 0 mM D-glucose, GBM15 1 mM",−3.1 ×10^−6 A
same,Applied potential,"[2]; 1 mM D-glucose, GBM15 1 mM",0.285 V
same,Current response,"[2]; 1 mM D-glucose, GBM15 1 mM",−3.75 ×10^−6 A
same,Applied potential,"[2]; 2 mM D-glucose, GBM15 1 mM",0.300 V
same,Current response,"[2]; 2 mM D-glucose, GBM15 1 mM",−4.25 ×10^−6 A
same,Applied potential,"[2]; 3 mM D-glucose, GBM15 1 mM",0.306 V
same,Current response,"[2]; 3 mM D-glucose, GBM15 1 mM",−4.4 ×10^−6 A
same,Applied potential,"[2]; 4 mM D-glucose, GBM15 1 mM",0.310 V
same,Current response,"[2]; 4 mM D-glucose, GBM15 1 mM",−4.5 ×10^−6 A
same,Applied potential,"[2]; 5 mM D-glucose, GBM15 1 mM",0.310 V
same,Current response,"[2]; 5 mM D-glucose, GBM15 1 mM",−4.5 ×10^−6 A
same,Glucose responsive cyclic voltammetry (FIG. 10),"[2]; GBM15 1 mM and FIM38 0.5 mM in 10 mM PBS, addition of D-glucose",shows a shift in both applied potential (V) and current response (A)
C[N+](C)(C)[C@@H](CCCCn1cc(C[C@H](NC(=O)OC[C@@H]2[C@@H]3CCC#CCC[C@@H]32)C(=O)NCCOCCOCCn2cc(CNC(=O)c3ccc4c(c3)C(=O)OC43c4ccc(O)cc4Oc4cc(O)ccc43)nn2)nn1)C(=O)NCC(CO[C@@H]1O[C@H](CO)[C@@H](O)[C@H](O)[C@H]1O)c1ccccc1.O=CO (some centres unmarked) [FIM47],Change in Emmax for FIM at a particular D-glucose concentration,"[3]; 5 mM D-glucose, GBM15 50 μM, FIM 5 μM, medium B, Ex 470 nm, Emmax 520 nm",130%
same,Change in Emmax for FIM at a particular D-glucose concentration,"[3]; 5 mM D-glucose, GBM40 20 uM, FIM 5 uM, Ex 470/Emmax 520 nm, medium B (10 mM PBS)",265%
same,Change in Emmax for FIM at a particular D-glucose concentration,"[3]; 10 mM D-glucose, GBM15 50 μM, FIM 5 μM, medium B, Ex 470 nm, Emmax 520 nm",190%
same,Change in Emmax for FIM at a particular D-glucose concentration,"[3]; 10 mM D-glucose, GBM40 20 uM, FIM 5 uM, Ex 470/Emmax 520 nm, medium B (10 mM PBS)",410%
same,Change in Emmax for FIM at a particular D-glucose concentration,"[3]; 20 mM D-glucose, GBM15 50 μM, FIM 5 μM, medium B, Ex 470 nm, Emmax 520 nm",260%
same,Change in Emmax for FIM at a particular D-glucose concentration,"[3]; 20 mM D-glucose, GBM40 20 uM, FIM 5 uM, Ex 470/Emmax 520 nm, medium B (10 mM PBS)",555%
same,Change in Emmax for FIM at a particular D-glucose concentration,"[3]; 40 mM D-glucose, GBM15 50 μM, FIM 5 μM, medium B, Ex 470 nm, Emmax 520 nm",310%
same,Change in Emmax for FIM at a particular D-glucose concentration,"[3]; 40 mM D-glucose, GBM40 20 uM, FIM 5 uM, Ex 470/Emmax 520 nm, medium B (10 mM PBS)",710%
same,Change in Emmax for FIM at a particular D-glucose concentration,"[3]; 60 mM D-glucose, GBM15 50 μM, FIM 5 μM, medium B, Ex 470 nm, Emmax 520 nm",340%
same,Change in Emmax for FIM at a particular D-glucose concentration,"[3]; 80 mM D-glucose, GBM15 50 μM, FIM 5 μM, medium B, Ex 470 nm, Emmax 520 nm",350%
same,Change in Emmax for FIM at a particular D-glucose concentration,"[3]; 80 mM D-glucose, GBM40 20 uM, FIM 5 uM, Ex 470/Emmax 520 nm, medium B (10 mM PBS)",860%
same,Change in Emmax for FIM at a particular D-glucose concentration,[1]; [4],40%
same,Change in Emmax for FIM at a particular D-glucose concentration,[1]; [5],100%
same,Change in Emmax for FIM at a particular D-glucose concentration,[1]; [6],120%
same,Change in Emmax for FIM at a particular D-glucose concentration,[1]; [7],160%
same,Change in Emmax for FIM at a particular D-glucose concentration,[1]; [8],190%
C#CCN(C)c1ccc2nc3ccc(N(C)Cc4cn(CC(CO[C@H]5O[C@@H](CO)[C@H](O)[C@@H](O)[C@@H]5O)c5ccccc5)nn4)cc3[s+]c2c1 (some centres unmarked) [FIM52],Applied potential,"[2]; 1 mM D-glucose, GBM15 1 mM",−0.287 V
same,Current response,"[2]; 1 mM D-glucose, GBM15 1 mM",−9.11 ×10^−6 A
same,Applied potential,"[2]; 2 mM D-glucose, GBM15 1 mM",−0.258 V
same,Current response,"[2]; 2 mM D-glucose, GBM15 1 mM",−9.52 ×10^−6 A
same,Applied potential,"[2]; 10 mM D-glucose, GBM15 1 mM",−0.239 V
same,Current response,"[2]; 10 mM D-glucose, GBM15 1 mM",−10.0 ×10^−6 A
same,Applied potential,"[2]; 20 mM D-glucose, GBM15 1 mM",−0.231 V
same,Current response,"[2]; 20 mM D-glucose, GBM15 1 mM",−11.1 ×10^−6 A
same,Applied potential,"[2]; 50 mM D-glucose, GBM15 1 mM",−0.231 V
same,Current response,"[2]; 50 mM D-glucose, GBM15 1 mM",−11.4 ×10^−6 A

# Reference: patent publication US20250172566A1, “SACCHARIDE SENSING SYSTEMS” (CARBOMETRICS LIMITED, priority 2022, published 2025)
